The record followed here is ChEMBL document CHEMBL1201862, “PubChem BioAssay data set” (2004).

Molecules are shown by their SMILES.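 How tested: cells in 96-well plates exposed to compound for 48 hours at five concentrations. GI50 = concentration required for 50% inhibition of growth.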 Activity calls are given as the source filed them. Rule as the data show it: active = GI50 up to about 1.1 µM and inactive = higher.

Some test systems named below: OVCAR-5; SF-539; HCT-116; LOX IMVI; HOP-62; SR; HL-60; SF-268; HCC 2998; RXF 393; U-251; OVCAR-8; RPMI-8226; SN12C; NCI-H23; M19-MEL; SNB-75; NCI-H460.
Holding throughout (assay): growth of human tumour cells (NCI), 48 h

On to `CN(Cc1ccccc1)c1nc(=[N+](C)C)ss1`, for which the GI50 in the assay with OVCAR-5 is > 100 µM (inactive); in the assay with SF-539 it was 76.4 µM (inactive); in the assay on HCT-116, 34.6 µM (inactive); in the assay with LOX IMVI, 36.8 µM (inactive); in the assay with HOP-62 it was > 100 µM (inactive); with SR, 44.2 µM (inactive). Also, the GI50 in the assay on HL-60 is 28.4 µM (inactive); in the assay with SF-268, 49.1 µM (inactive); in the assay with HCC 2998, > 100 µM (inactive); with RXF 393, > 100 µM (inactive); with U-251, 40.8 µM (inactive); with OVCAR-8, > 100 µM (inactive). Besides, the GI50 with RPMI-8226 is 28.3 µM (inactive); with SN12C, 65 µM (inactive); with NCI-H23, 31.8 µM (inactive); with M19-MEL, 41.9 µM (inactive); in the assay on SNB-75, > 100 µM (inactive); in the assay on NCI-H460, 16.9 µM (inactive).
Take `COc1ccc(/C=C/C(=O)c2sc(NC(=S)NC(=O)c3ccc(Cl)cc3)nc2C)cc1OC`: the GI50 in the assay on OVCAR-5 is > 100 µM (inactive); with SF-539 it was 60.4 µM (inactive); in the assay with HCT-116, 51.4 µM (inactive); in the assay with LOX IMVI it was 32.2 µM (inactive); with HOP-62 it was 47.5 µM (inactive); in the assay with SR, 32 µM (inactive). Also, the GI50 is 30.3 µM (inactive) in the assay with HL-60; 94.8 µM (inactive) in the assay with SF-268; > 100 µM (inactive) in the assay with HCC 2998; 95.5 µM (inactive) in the assay with RXF 393; 34.6 µM (inactive) in the assay on U-251; 43.9 µM (inactive) with OVCAR-8. Also, the GI50 in the assay on RPMI-8226 is 24 µM (inactive); with SN12C, 36.6 µM (inactive); in the assay on NCI-H23, 33.5 µM (inactive); in the assay on M19-MEL it was 53.2 µM (inactive); in the assay with NCI-H460, 84.7 µM (inactive).
`O=C1N/C(=C\[N+](=O)[O-])c2ccccc21`: the GI50 in the assay on OVCAR-5, in the assay with SF-539, in the assay on HCT-116, in the assay on LOX IMVI, in the assay on HOP-62 and with SR was > 100 µM (inactive) in each case. For the same compound, the GI50 in the assay on HL-60, in the assay on SF-268, in the assay on HCC 2998, in the assay on RXF 393, with U-251 and with OVCAR-8 was > 100 µM (inactive) each time. Moreover, the GI50 with RPMI-8226 is > 100 µM (inactive); in the assay with SN12C, > 100 µM (inactive); in the assay on NCI-H23, > 100 µM (inactive); with M19-MEL it was > 100 µM (inactive); in the assay with SNB-75, 25.9 µM (inactive); in the assay with NCI-H460 it was > 100 µM (inactive).
As for `O=C1c2ccncc2C(=O)c2c(O)ccc(O)c21`, the GI50 in the assay with OVCAR-5 is 16 µM (inactive); in the assay on SF-539 it was 3.89 µM (inactive); with HCT-116 it was 2.91 µM (inactive); with LOX IMVI, 4.25 µM (inactive); in the assay on HOP-62, 32.2 µM (inactive); with SR, 11 µM (inactive). For the same compound, the GI50 is 2.22 µM (inactive) with HL-60; 11.1 µM (inactive) with SF-268; 4.92 µM (inactive) in the assay on HCC 2998; 4.35 µM (inactive) in the assay with RXF 393; 16 µM (inactive) in the assay with U-251; 9.64 µM (inactive) in the assay with OVCAR-8. In addition, the GI50 with RPMI-8226 was 5.16 µM (inactive); with SN12C it was 4.73 µM (inactive); in the assay with M19-MEL, 1.32 µM (inactive); in the assay with SNB-75 it was 23.6 µM (inactive); in the assay with NCI-H460, 11.4 µM (inactive).
In the case of `Nc1c(-c2ccccc2-c2c(N)[n+]([O-])c3ccccc3[n+]2[O-])[n+]([O-])c2ccccc2[n+]1[O-]`, the GI50 in the assay on OVCAR-5 was 64.6 µM (inactive); with SF-539, 17.5 µM (inactive); in the assay with HCT-116 it was 6.71 µM (inactive); in the assay on LOX IMVI, 8.83 µM (inactive); in the assay on SR, 4.3 µM (inactive); in the assay with HL-60, 3.69 µM (inactive). Also, the GI50 is 3.16 µM (inactive) with SF-268; 22 µM (inactive) in the assay with HCC 2998; 30.3 µM (inactive) in the assay with RXF 393; 5.46 µM (inactive) in the assay on U-251; 3.7 µM (inactive) in the assay with OVCAR-8; 4.73 µM (inactive) in the assay on RPMI-8226. Also, the GI50 with SN12C was 6.17 µM (inactive); in the assay with NCI-H23, 15.6 µM (inactive); in the assay on M19-MEL it was 8.41 µM (inactive); in the assay on SNB-75, 22.2 µM (inactive); with NCI-H460, 2.51 µM (inactive).
With `COc1cc2cc3c4c(cc(OC)c(OC)c4c2cc1OC)CCN3C(=O)CCC(=O)NCCCN(C)C`, the GI50 with SF-539 is 18.8 µM (inactive); with HCT-116, 43.1 µM (inactive); with LOX IMVI it was 14.3 µM (inactive); with HOP-62 it was 50.7 µM (inactive); in the assay with SR, 25.2 µM (inactive); in the assay with HL-60, 21.7 µM (inactive). Also, the GI50 was > 100 µM (inactive) in the assay on SF-268; > 100 µM (inactive) with HCC 2998; > 100 µM (inactive) with RXF 393; 41.9 µM (inactive) in the assay on U-251; > 100 µM (inactive) in the assay with OVCAR-8; 38.5 µM (inactive) in the assay with RPMI-8226. In addition, the GI50 was > 100 µM (inactive) in the assay with SN12C; > 100 µM (inactive) in the assay on NCI-H23; 22.8 µM (inactive) in the assay on M19-MEL; 10.3 µM (inactive) in the assay on SNB-75; 33.1 µM (inactive) in the assay on NCI-H460.
With `CC1CCC2(C)C(CC=C(C=O)C2(O)C=O)C12CO2` (stereo not given), the GI50 was 2.73 µM (inactive) in the assay with OVCAR-5; 2.19 µM (inactive) in the assay with SF-539; 1.49 µM (inactive) with HCT-116; 2.69 µM (inactive) in the assay with LOX IMVI; 20.9 µM (inactive) in the assay with HOP-62; 1.71 µM (inactive) with SR. The GI50 with HL-60 is 0.877 µM (active); in the assay with SF-268, 4.25 µM (inactive); in the assay on HCC 2998 it was 2.29 µM (inactive); in the assay on RXF 393, 1.48 µM (inactive); with U-251, 2.81 µM (inactive); in the assay on OVCAR-8, 2.22 µM (inactive). Besides, the GI50 in the assay with RPMI-8226 is 2.15 µM (inactive); in the assay with SN12C, 2.6 µM (inactive); in the assay on NCI-H23, 2.25 µM (inactive); in the assay with M19-MEL, 1.73 µM (inactive); in the assay with NCI-H460, 2.57 µM (inactive).
Take `C#CCNC(=O)NC(CCCNC(=O)OCc1ccccc1)C(=O)OCc1ccccc1` (stereo not given): the GI50 with OVCAR-5 is > 100 µM (inactive); with SF-539, 50.2 µM (inactive); in the assay with HCT-116, > 100 µM (inactive); in the assay on LOX IMVI, 95.1 µM (inactive); in the assay on HOP-62, > 100 µM (inactive); with SR it was > 100 µM (inactive). The GI50 in the assay with HL-60 is 25.4 µM (inactive); with SF-268, > 100 µM (inactive); in the assay with HCC 2998, > 100 µM (inactive); in the assay on RXF 393, 30.1 µM (inactive); in the assay with U-251 it was > 100 µM (inactive); in the assay on OVCAR-8 it was > 100 µM (inactive). Also, the GI50 with RPMI-8226 was > 100 µM (inactive); with SN12C, > 100 µM (inactive); in the assay with NCI-H23, > 100 µM (inactive); in the assay with M19-MEL, 77.1 µM (inactive); with SNB-75, 82.4 µM (inactive); with NCI-H460, 46.2 µM (inactive).
For `NC(=S)N/N=C1/C(=O)N(c2ccccc2)C(=O)C1C(=O)Nc1ccccc1` (stereo not given), the GI50 in the assay with OVCAR-5, in the assay on SF-539, with HCT-116, in the assay with HOP-62, with SR and in the assay on HL-60 was > 100 µM (inactive) each time. For the same compound, the GI50 with SF-268, with HCC 2998, with RXF 393, in the assay on U-251, with OVCAR-8 and with SN12C was > 100 µM (inactive) each time. For the same compound, the GI50 with NCI-H23, in the assay with M19-MEL, in the assay with SNB-75 and in the assay on NCI-H460 was > 100 µM (inactive) in each case.
For the compound `COc1ccc(C2=NOP(c3ccccc3)(c3ccccc3)(c3ccccc3)C2)cc1`, the GI50 is 4.45 µM (inactive) in the assay with OVCAR-5; 29.7 µM (inactive) in the assay on SF-539; 2.39 µM (inactive) in the assay with HCT-116; 10.1 µM (inactive) in the assay with LOX IMVI; 20.8 µM (inactive) in the assay on HOP-62; 7.46 µM (inactive) in the assay with SR. In addition, the GI50 with HL-60 was 2.13 µM (inactive); in the assay with SF-268, 40.4 µM (inactive); in the assay on HCC 2998 it was 20.9 µM (inactive); with RXF 393 it was 28.9 µM (inactive); in the assay on U-251 it was 23.5 µM (inactive); with OVCAR-8, 14.8 µM (inactive). Also, the GI50 was 10.6 µM (inactive) in the assay with RPMI-8226; 29.6 µM (inactive) in the assay on SN12C; 19.1 µM (inactive) with NCI-H23; 21.7 µM (inactive) with M19-MEL; 33 µM (inactive) in the assay with SNB-75; 9.31 µM (inactive) in the assay on NCI-H460.
For the compound `COc1cc(NS(C)(=O)=O)ccc1NCc1c2ccccc2nc2ccccc12`, the GI50 was > 100 µM (inactive) with OVCAR-5; 24.3 µM (inactive) in the assay with SF-539; 3.45 µM (inactive) in the assay on HCT-116; 23.2 µM (inactive) in the assay with LOX IMVI; 4.71 µM (inactive) in the assay on SR; 13.5 µM (inactive) with HL-60. In addition, the GI50 in the assay on SF-268 is 32.1 µM (inactive); with HCC 2998 it was 40.6 µM (inactive); in the assay on RXF 393, 13.9 µM (inactive); in the assay with U-251, 76.6 µM (inactive); in the assay with OVCAR-8, 30.9 µM (inactive); in the assay with RPMI-8226, 22.5 µM (inactive). Further, the GI50 was 28.3 µM (inactive) with SN12C; 31 µM (inactive) in the assay on NCI-H23; > 10 µM (inactive) in the assay with M19-MEL; > 100 µM (inactive) in the assay on SNB-75; 34.5 µM (inactive) in the assay with NCI-H460.
